{"source": "patent US20230302133A1", "about": "“TARGETED PROTEIN DEGRADATION IN THERAPEUTIC CELLS” (The Regents of the University of California, priority 2020, published 2023)", "key": {"[1]": {"tested_on": "STUD degradation of GFP in Jurkat T cells", "test": "Inhibitor assay: rescue of GFP fluorescence in Jurkat T cells expressing STUD and GFP target", "assay_type": "cell-based", "conditions": "5 hours", "description": "Using the 2 plasmid system as described above, we lentivirally transduce Jurkat T cells. 72 hours after removal of lentivirus, we treat these Jurkat T cells and an untransduced control cell line with either 5 μM of the proteasomal inhibitor MG-132, 1 μM of the cullin ring ligase inhibitor MLN4924, 100 nM of the lysosomal inhibitor Bafilomycin Al, or DMSO vehicle control and incubate at 37 C for 5 hours. Using flow cytometry to measure GFP fluorescence following treatment, we observe that GFP fluorescence can indeed be rescued with MG-132 and MLN4924 when cells express both a functional STUD and a GFP target relative to DMSO vehicle control.\n(§1) Inhibitor Assays: 100,000 cells were plated in a 96 well round bottom plate with either 5 μM MG-132 (Sigma-Aldrich #M7449-200UL), 1 μM MLN4924(Active Biochem #A-1139), 100 nM Bafilomycin A1(Enzo Life Sciences #BML-CM110-0100), or DMSO vehicle control and incubated at 37 C for 5 hours. After incubation, cells were pelleted by centrifugation at 400×g for 4 minutes. Supernatant was then removed and cells were washed once with 200 μL PBS. Cells were pelleted again (400×g for 4 minutes) and resuspended in flow buffer (PBS+2% FBS) for assay by flow cytometry."}, "[2]": {"tested_on": "CD19BBz CAR", "test": "MLN4924 rescue of STUD knockdown of CD19BBz CAR expression in CD8+ primary T cells", "assay_type": "cell-based, human", "conditions": "1 μM MLN4924, 5 hours, 37 C", "description": "Engineered CD8+T cells expressing were cocultured with NALM6 target cells and measured activation of the CAR by quantifying target cell lysis and expression of the T cell activation marker CD25.\nas §1"}, "[3]": {"tested_on": "NALM6 target cells", "test": "MLN dose response: ON switch CAR lysis of NALM6 target cells", "assay_type": "cell-based, human", "conditions": "MLN4924 1 μM to 0.015625 μM, 72 hours, CD8+ T cells with antiCD19BBz CAR-SynZip and memSTUD", "description": "CD8+primary human T cells were engineered with an antiCD19BBz CAR fused to a SynZip and a memSTUD that binds the SynZip using the same plasmids outlined in FIG. 14A by lentiviral transduction. As a control, we also lentivirally transduce CD8+primary human T cells with an antiCD19BBz and a SynZip memSTUD which cannot bind the CAR. These engineered cells and an untransduced control were cocultured with NALM6 target cells for 72 hours at 37 C in the presence of MLN4924 ranging from 1 μM to 0.015625 μM and a DMSO vehicle control. After coculture, target cell lysis was assayed by flow cytometry. Specific target cell lysis of each cell line relative to NALM6 cells cultured alone in the same conditions was then calculated.\n100 μL containing media containing a 2×concentration of MLN4924 was added to each well of seeded cells. Cells with MLN4924 were incubated at 37 C for 72 hours. DMSO vehicle at the same concentration as the max MLN4924 concentration was added to cells as a control."}, "[4]": {"tested_on": "CAR construct with SynZIP17 fused to its C-terminus", "test": "Degradation of CAR-SZ17 fusion in Jurkat cells", "assay_type": "cell-based", "conditions": "degron directly fused to the CAR", "description": "Next, the soluble STUD was used to target a membrane protein for degradation. The ability of the STUD to degrade a CAR in Jurkat cells was tested by generating a CAR construct with SynZIP17 fused to its C-terminus. However, while these STUDs worked to some extent, none of them were able to completely knockdown CAR expression (see FIG. 8).\nMembrane targeting STUD: Membrane targeting cells were introduced by lentiviral transduction of two plasmids. […] Cells were then analyzed by flow cytometry. […] CAR and SynNotch expression was measured by antibody staining for a peptide tag fused to the extracellular domain of the CAR/SynNotch."}, "[5]": {"biological_target": "GFP-SZ17 [GFP: P42212]", "test": "cell-based or functional assay"}}, "note": "Residues, ends and D or L forms follow the SMILES beside them. *: point of attachment. Cbz = O=C(OCc1ccccc1)*", "data": [{"compound": "CC(C)C[C@@H](C=O)NC(=O)[C@H](CC(C)C)NC(=O)[C@H](CC(C)C)NC(=O)OCc1ccccc1", "note": "[MG-132] (Cbz-Leu-Leu-Leu-aldehyde)", "values": [{"measurement": "GFP fluorescence relative to DMSO vehicle control", "setting": "[1]; 5 μM MG-132, 37 C, cells with functional STUD and GFP target", "result": "rescued"}]}, {"compound": "NS(=O)(=O)OC[C@@H]1C[C@@H](n2ccc3c(N[C@H]4CCc5ccccc54)ncnc32)C[C@@H]1O", "note": "[MLN4924]", "values": [{"measurement": "GFP fluorescence relative to DMSO vehicle control", "setting": "[1]; 1 μM MLN4924, 37 C, cells with functional STUD and GFP target", "result": "rescued"}, {"measurement": "CAR expression after cullin inhibitor", "setting": "[2]", "result": "rescue"}, {"measurement": "specific target cell lysis", "setting": "[3]", "result": "dose dependent"}]}, {"compound": "RRRG [Bonger degron]", "values": [{"measurement": "reduction of CAR expression", "setting": "[4]", "result": "over 90%"}]}, {"compound": "SynZIP18(K->R)-5xGS-RRRG (designed binder)", "values": [{"measurement": "fold change of median normalized GFP fluorescence, flow cytometry, Jurkat T cells (STUD-induced degradation)", "setting": "[5]", "result": 42, "unit": "fold"}]}, {"compound": "bafilomycin", "values": [{"measurement": "GFP fluorescence relative to DMSO vehicle control", "setting": "[1]; 100 nM Bafilomycin, 37 C", "result": "No changes"}]}]}
